Square brackets hold non-standard residues; d marks the D form. Peptide text beside a SMILES is read from it. Phe(4-I) = N[C@@H](Cc1ccc(I)cc1)C(=O)O
Columns and labels:
[1] = target: T1, HIF-1a (Homo sapiens, UniProt Q16665); assay: CETSA in MCF-7 cells; type: cell-based; conditions: observed at 51° C. and 54° C.
T1 construct: endogenous in cells; host or cells: MCF-7
Procedure: The binding of 4-iodo derivative to HIF-1a was assessed by CETSA in MCF-7 cells. Stabilisation of HIF-1a by this compound can be observed at 51° C. and 54° C.
The binding of 4-iodo derivative to HIF-1a was assessed by CETSA in MCF-7 cells. Stabilisation of HIF-1a by this compound can be observed at 51° C. and 54° C. (FIG. 7).

[2] = target: T2, HIF-1α PAS-B (238-349) (Homo sapiens, UniProt Q16665); assay: MST binding to recombinantly expressed HIF-1α PAS-B domain; conditions: HIF-1α PAS-B, parent CRLIIF
T2 construct: human HIF-1α PAS-B (238-349); His tag; made in house; host or cells: E. coli BL21(DE3)-Rosetta, pET28a
T2 sequence (Q16665 238-349): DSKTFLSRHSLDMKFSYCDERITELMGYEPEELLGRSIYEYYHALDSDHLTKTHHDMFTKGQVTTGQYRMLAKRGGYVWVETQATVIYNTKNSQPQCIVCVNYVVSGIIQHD
Procedure: (§1) Genes encoding for human HIF-1α PAS-B (238-349) and HIF-2α PAS-B (240-350) were each cloned into pET28a vectors at the BamHI and SacI restriction sites. The recombinant plasmids were next transformed into BL21(DE3)-Rosetta chemically competent cells. Cells were grown in LB media at 37° C. to an OD600 of 0.7, after which expression was induced by addition of 0.5 mM IPTG. Following overnight expression at 16° C., cells were pelleted and resuspended in buffer containing 50 mM Tris, 150 mM NaCl, 5% glycerol, 1 mM TCEP, protease inhibitors (Roche) and 20 mM imidazole, pH 8.0. Cells were lysed by sonication, and the supernatant applied to a 1 mL Histrap FF affinity column. The His-tagged protein of interest was eluted with buffer containing 50 mM Tris, 150 mM NaCl, 5% glycerol, 1 mM TCEP and 250 mM imidazole. The protein was then loaded onto a HiLoad 16/600 superdex 75 pg size exclusion column (GE healthcare) equilibrated with assay buffer containing 50 mM Tris, 150 mM NaCl, 5% glycerol and 1 mM TCEP, pH 8.0. Fractions containing the desired protein were flash-frozen and stored at −80° C. prior to use.
HIF-α proteins were labelled with Monolith NT-647 labelling dye (Nanotemper Technologies GmbH) according to the manufacturer's instructions. MST experiments were performed on a Monolith NT.115 system (Nanotemper Technologies GmbH), in assay buffer containing 50 nM labelled protein, 10% DMSO and 0.05% TWEEN-20. MST measurements were performed using 50% LED and 50% MST power.

[3] = solubility (qualitative); type: physicochemical
[4] = test system: HRE-controlled YFP expression in T-REx-293 cell line; assay: YFP reporter assay (YFP under control of three HRE copies) in hypoxia; type: cell-based; conditions: YFP-reporter HEK cell line, various doses
Procedure: The effect of the cyclic peptides on cellular systems was assessed. A cell-based assay was developed in which the expression of yellow fluorescent protein (YFP) was put under the control of the HRE. A cassette was designed containing the YFP gene preceded by three copies of the HRE sequence. This cassette in turn was stably integrated into the chromosome of T-REX-293 cell line as described previously. […] In these cells, hypoxia results in increased expression of YFP (directly by HIF), so a HIF inhibitor would be expected to reduce the fluorescence of these cells when incubated in hypoxia.
Following in vitro characterisation and optimisation of binding, the effect of the cyclic peptides on cellular systems was assessed. A cell-based assay was developed in which the expression of yellow fluorescent protein (YFP) was put under the control of the HRE. A cassette was designed containing the YFP gene preceded by three copies of the HRE sequence. This cassette in turn was stably integrated into the chromosome of T-REx-293 cell line as described previously.^12
In these cells, hypoxia results in increased expression of YFP (directly by HIF), so a HIF inhibitor would be expected to reduce the fluorescence of these cells when incubated in hypoxia.

[5] = target: T3, HIF-2α PAS-B (240-350) (Homo sapiens, UniProt Q99814); assay: MST binding to recombinantly expressed HIF-2α PAS-B domain; conditions: HIF-2α PAS-B vs HIF-1α PAS-B
T3 construct: HIF-2α PAS-B (240-350); His tag; made in house; host or cells: E. coli BL21(DE3)-Rosetta, pET28a
T3 sequence (Q99814 240-350): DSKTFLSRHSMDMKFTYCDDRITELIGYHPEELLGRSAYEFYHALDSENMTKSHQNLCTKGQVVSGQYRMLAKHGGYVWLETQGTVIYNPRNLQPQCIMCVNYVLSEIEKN
Procedure: The three lead peptides were next chemically synthesised, using Fmoc-solid phase peptide synthesis methodology, followed by in-solution cyclisation under high dilution conditions.
as §1, with “use. […]” for “use.”

[6] = test system: cells; assay: commercial cell-viability assay; type: cell-based; conditions: at up to twice the tested doses
Procedure: The 4-iodo derivative was tested in a commercial cell-viability assay, and was not toxic to cells at up to twice the tested doses.
The 4-iodo derivative was tested in a commercial cell-viability assay, and was not toxic to cells at up to twice the tested doses (FIG. 6).

T1 sequence (Q16665 whole entry): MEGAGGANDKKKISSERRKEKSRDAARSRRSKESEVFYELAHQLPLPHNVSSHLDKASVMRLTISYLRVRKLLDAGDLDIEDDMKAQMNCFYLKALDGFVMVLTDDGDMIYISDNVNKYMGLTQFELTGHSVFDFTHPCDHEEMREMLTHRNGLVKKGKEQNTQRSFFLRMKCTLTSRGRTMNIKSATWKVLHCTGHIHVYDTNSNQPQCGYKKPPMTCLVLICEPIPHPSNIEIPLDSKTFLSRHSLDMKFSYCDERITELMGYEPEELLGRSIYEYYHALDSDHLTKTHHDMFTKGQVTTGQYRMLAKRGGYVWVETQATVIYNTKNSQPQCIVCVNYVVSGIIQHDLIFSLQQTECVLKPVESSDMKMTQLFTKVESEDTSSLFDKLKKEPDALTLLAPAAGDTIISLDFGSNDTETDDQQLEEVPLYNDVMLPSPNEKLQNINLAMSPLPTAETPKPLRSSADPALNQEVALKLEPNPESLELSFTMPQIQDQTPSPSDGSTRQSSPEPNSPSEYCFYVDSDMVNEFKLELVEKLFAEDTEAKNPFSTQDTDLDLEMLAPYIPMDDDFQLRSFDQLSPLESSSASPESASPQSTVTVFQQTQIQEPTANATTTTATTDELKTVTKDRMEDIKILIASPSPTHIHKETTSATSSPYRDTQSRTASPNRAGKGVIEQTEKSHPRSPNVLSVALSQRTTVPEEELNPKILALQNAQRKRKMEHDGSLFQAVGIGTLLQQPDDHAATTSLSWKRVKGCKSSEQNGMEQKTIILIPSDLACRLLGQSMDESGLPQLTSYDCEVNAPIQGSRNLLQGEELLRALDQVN

Question: Which “Stabilisation of HIF-1a by CETSA” value [1] does the source give for `CC[C@H](C)[C@@H]1NC(=O)[C@H](CC(C)C)NC(=O)[C@H](CCCNC(=N)N)NC(=O)[C@H](CS)NC(=O)[C@H](Cc2ccc(I)cc2)NC(=O)[C@H]([C@@H](C)CC)NC1=O` [Cyclic peptide #18, cyclo-cys agr leuileile (4-I)phe] (cyclo(CRLII[Phe(4-I)])) here?
Answer: The value was “Stabilisation”.

Question: And the “improvement in affinity relative to the parent compound” value [2]?
Answer: Its value is 4.5 fold.

Question: And the “water solubility compared with the 4-benzyl compound” value [3]?
Answer: Its value is “better water solubility”.

Question: And the IC50 [4]?
Answer: Its IC50 is roughly 35 µM.

Question: What about the “loss in Kd compared to the 1α isoform” value [5] of the same compound?
Answer: Its value is 2.2 fold.

Question: And the “toxicity to cells in cell-viability assay” value [6]?
Answer: Its value is “not toxic”.
